Values joined by “and” are separate entries in the source; they are usually repeats but may differ in a detail not shown here. Equal entries are not always repeated. Where two headings read alike, the source gives them in different places.
Tests used:
[1] = molecular target: T1, CREBBP bromodomain (Homo sapiens, UniProt Q92793); test: Isothermal titration calorimetry (ITC), CREBBP bromodomain; type: binding
Description: Figure S11. The isothermal titration calorimetry (ITC) data for the compounds shown, measured for the CREBBP bromodomain.
(§1) Isothermal Titration Calorimetry. All calorimetric experiments were performed on a MicroCal iTC200 or MicroCal PEAQ-ITC Automated (Malvern) and analyzed with the MicroCal PEAQ-ITC Analysis software (Malvern 1.1.0.1262) using a single binding site model, with the N number set to 1. The first data point was excluded from the analysis.
(§2) BRD4(1) and CREBBP bromodomains were dialyzed at 4 °C overnight in a Slide-A-Lyzer® MINI Dialysis Device (2000 MWCO; Thermo Scientific Life Technologies) into 50 mM HEPES, 150 mM NaCl containing 0.2% DMSO; pH 7.4. Proteins were centrifuged to remove […]
(§3) Protein concentration were determined by measuring
(§4) Technologies Inc.) by using the predicted protein absorbance (CREBBP: ε280: […]
(§5) dissolved as 10 to 50 mM DMSO stock solution and diluted to the required concentration using dialysis buffer. The cell was stirred at 750 rpm, reference power set to 5 μcal/sec and temperature held at 25 °C. After an initial delay of 60 sec, 20 × 2 μL injections (first injection 0.4 μL) were performed with a spacing of 150 sec. Heated dilutions were measured under the same conditions and subtracted for analysis. Small molecule solutions in the calorimetric
Target sequence in this assay (Q92793 1081-1197): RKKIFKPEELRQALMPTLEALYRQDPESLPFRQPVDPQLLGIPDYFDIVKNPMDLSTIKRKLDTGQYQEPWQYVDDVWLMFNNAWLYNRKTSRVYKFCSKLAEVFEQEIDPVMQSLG

[2] = molecular target: T2, BRD4(1) (Homo sapiens, UniProt O60885); test: Isothermal titration calorimetry (ITC), BRD4(1); type: binding
Description: as §1, §2, §3, §4, §5

[3] = molecular target: T1, CREBBP bromodomain; test: BROMOscan (bromoKdELECT), CREBBP; type: binding; details: concentrations of up to 1 μM
Description: (§6) Figure 7 Representation of the bromoKdELECT data for (A) compound 2 and (B) compound 3. Using the BROMOscan platform, Kd values were determined for 12 phylogenetically diverse bromodomains (ATAD2B, BRD2(1), BRD4(1), BRD7, BRD9, BRPF1, CREBBP, EP300, PCAF, SMARCA4, TAF1(2), and TRIM24).
Target sequence in this assay (Q92793 1085-1192 limits assumed): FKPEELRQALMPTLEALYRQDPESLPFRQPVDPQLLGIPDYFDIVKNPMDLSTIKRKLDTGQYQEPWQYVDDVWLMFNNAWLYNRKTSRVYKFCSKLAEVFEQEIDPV

[4] = molecular target: T3, EP300 bromodomain (Homo sapiens, UniProt Q09472); test: BROMOscan (bromoKdELECT), EP300; type: binding; details: concentrations of up to 1 μM
T3 sequence (Q09472 1049-1156 limits assumed): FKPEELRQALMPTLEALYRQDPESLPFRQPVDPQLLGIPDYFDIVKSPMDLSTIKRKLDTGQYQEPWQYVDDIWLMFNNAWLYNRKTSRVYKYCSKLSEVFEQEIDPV
Description: as §6

[5] = test system: ATAD2B, BRD2(1), BRD4(1), BRD7, BRD9, BRPF1, PCAF, SMARCA4, TAF1(2), TRIM24 bromodomains; test: BROMOscan (bromoKdELECT), other bromodomains of the panel; type: binding; details: concentrations of up to 1 μM
Description: as §6

[6] = test system: c-Myc in HCT116 cells; test: c-Myc protein level in HCT116 cells (Western blot); type: cell-based, human; details: HCT116, 10 μM, 6-24 h
[7] = test system: c-Myc mRNA in HCT116 cells; test: c-Myc mRNA level in HCT116 cells (Q-PCR); type: cell-based, human; details: HCT116, 10 μM, Q-PCR vs 18S
Description: (A) HCT116 cells were exposed to 2 (10 μM) for the times shown. Western blots were then carried out for the proteins indicated. β-Actin is included as a loading control. (B) HCT116 cells were exposed to 2 (10 μM) for the times indicated followed by mRNA preparation. Q-PCR was then carried out to determine c-Myc mRNA levels compared to the 18S. Data were analyzed using one-way ANOVA. *P < 0.05, **P < 0.01, ***P < 0.001. […] (E) HCT116 cells were exposed to 2 (10 μM) or I-CBP112 for the times indicated. […]
Petri dishes overnight. Following compound treatment, cells were collected, and RNA was
isolated using TRIzol (Invitrogen/Life Technologies) according to the manufacturer’s
instructions. For qPCR expression analysis, cDNA was reverse transcribed from total RNA
using the Verso Kit (Thermo Scientific). qPCR was performed using the SYBR Green PCR
Master Mix Kit (Applied Biosystems) in a 7500 FAST Real-Time PCR thermocycler with
v2.0.5 software (Applied Biosystems). The following sequences of qPCR primers were used: […]
(§7) c-MYC For: […], c-MYC Rev: […],
18S For: […], 18S Rev: […]. The
c-MYC mRNA fold change was calculated using a 2–ΔΔCt method and expressed in relation
to the 18S reference gene. The qPCR graph shown represents the mean ± SD of 3 biological

[8] = test system: H3K18Ac in HCT116 cells; test: H3K18 acetylation in HCT116 cells (Western blot); type: cell-based, human; details: HCT116, 10 μM
Description: (§8) (A) HCT116 cells were exposed to 2 (10 μM) for the times shown. Western blots were then carried out for the proteins indicated. β-Actin is included as a loading control. (B) HCT116 cells were exposed to 2 (10 μM) for the times indicated followed by mRNA preparation. Q-PCR was then carried out to determine c-Myc mRNA levels compared to the 18S. Data were analyzed using one-way ANOVA. *P < 0.05, **P < 0.01, ***P < 0.001. […] (E) HCT116 cells were exposed to 2 (10 μM) or I-CBP112 for the times indicated.
(§9) overnight. Following compound treatment, cells were collected and lysed in urea buffer (9 M
(§10) urea, 75 mM Tris-HCl pH 7.5, 0.15 M β-mercaptoethanol). Proteins (50 µg) were separated
(§11) by gel electrophoresis on a 4-20% Tris-glycine gel and subjected to immunoblotting. The
(§12) 15, Santa Cruz). Secondary antibodies IRDye® 680RD Goat anti-Mouse IgG (H+L) and
(§13) IRDye® 680RD Goat anti-Rabbit IgG (H+L) were from LI-COR Biosciences. The Odyssey
(§14) infrared system (LI-COR) was used to image Western blots. […]
as §7
(§15) 18S For: […], 18S Rev: […]. […]

[9] = test system: H3K27Ac in HCT116 cells; test: H3K27 acetylation in HCT116 cells (Western blot); type: cell-based, human; details: HCT116, 10 μM
Description: as §8, §9, §10, §11, §12, §13, §14, §7, §15

[10] = test system: HIF-1α in HCT116 cells; test: HIF-1α level in HCT116 cells in hypoxia (Western blot); type: cell-based, human; details: HCT116, 10 μM, hypoxia (<0.1% O2)
[11] = molecular target: T2, BRD4(1); details: read-out: BRD4(1) Kd (NMR); ligand-observed 1H NMR, estimated Kd
Description: The reduction of the signal for the 4,5-dihydrobenzodiazepinone methyl group upon
BRD4(1) addition was used to monitor BRD4(1) binding.
The curves were derived from the integral reduction for the signal of the methyl
group located at 4,5-dihydrobenzodiazepinone headgroup upon BRD4(1) addition, detected
by means of Ligand-observed 1H NMR. E Kd values were determined using the one site-
specific binding model least square fit non-linear regression from Graphpad Prism®.
X = concentration of the ligand
Bmax = maximum binding in the same units as Y
Kd = dissociation constant in the same units as X
Ligand-Observed Proton NMR. BRD4(1) bromodomain protein in HEPES containing storage buffers were exchanged into Invitrogen 10 mM Na/K phosphate buffer (0.9% NaCl, pH 7.6) using dialysis. BRD4(1) bromodomain protein concentrations in the phosphate
Samples were prepared to a total sample volume of
160 µL phosphate buffer, with 50 µM compound from 5 mM D6-DMSO stock solutions, 10%
D2O for signal locking and the appropriate amount of protein. After loading into 3 mm
Hildenberg NMR tubes for Bruker Matchä system, samples were briefly centrifuged in a
manual benchtop rotor. Spectra were recorded on a Bruker AVIII 700 MHz spectrometer
with a TXI probe using a standard excitation-sculpting water suppression pulse sequence
For each compound, a compound only sample was recorded as a
reference, followed by samples with protein. Each spectrum was processed with Bruker
Topspinä 3.2, the data were recorded using Microsoft ExcelÒ, then the Kd value was
calculated using the “one site – specific binding; non-linear regression” function using
Graphpad PrismÒ. In Topspin, spectra were phased corrected and calibrated to the residual
DMSO peak, then local baseline corrections were performed (“absf n” function). The integral
of the studied peaks and the DMSO reference peaks were calculated in each spectra for the
determined chemical shift range (constant ranges were used for each studied compound).
Using the ratio of integrals, the integral decrease of the peak of interest with increasing […]

## COc1ccc2c(c1)N(CCC/C=C/c1cccc3c1N[C@H](C)CC(=O)N3)CCC2 [Compound 2, (R,E)-6-(5-(7-Methoxy-3,4-dihydroquinolin-1(2H)-yl)pent-1-en-1-yl)-4-methyl-1,3,4,5-tetrahydro-2H-benzo[b][1,4]diazepin-2-one]
[1]
  Kd: 102 ± 10 nM
[1]; BRD4(1) Kd from NMR
  selectivity for CREBBP versus BRD4(1): > 100 fold
[1]; CREBBP pKd or pIC50 (A) minus cLogD pH7.4 (B)
  LLE (A – B): 1.92
[1]; ITC
  CREBBP pKd: 7.0
[1]; Table 2, BRD4(1) Kd from ITC and NMR
  CREBBP / BRD4(1) selectivity: 101
[1]; from CREBBP pKd or pIC50
  LE: 0.33
[2]
  BRD4(1) Kd (ITC): n.b. and n.b.^c
  binding to BRD4(1) by ITC (in words): unable to detect binding
[2]; csv supplement
  BRD4(1) Kd (ITC): n.b.
[3]
  Kd: 200 nM
[4]
  Kd: 240 nM and 230 nM
[5]
  binding to the other bromodomains of the panel (BROMOscan): no binding
[6]
  c-Myc expression: reduces expression of c-Myc
[7]
  c-Myc mRNA level: effects were also observed on c-Myc mRNA
[8]
  H3K18Ac level: decrease
[8]; 6 h
  H3K18Ac level relative to t = 0: ~30 % of t = 0
[8]; 24 h
  H3K18Ac level relative to t = 0: ~70 % of t = 0
[9]
  H3K27Ac level: decrease
[9]; 6 h
  H3K27Ac level relative to t = 0: ~30 % of t = 0
[9]; 24 h
  H3K27Ac level relative to t = 0: ~70 % of t = 0
[10]
  HIF-1α level in hypoxia: stabilization of HIF-1α above the level observed in hypoxia alone
[11]
  Kd: 10300 ± 1890 nM

Reference: PMC8311651, “Controlling Intramolecular Interactions in the Design of Selective, High-Affinity Ligands for the CREBBP Bromodomain” (Journal of Medicinal Chemistry, 2021)
